Experimental data: patent publication US9415122B2, “Methods and compositions for the detection of cancer cells” (priority 2008, dated 2016)
Read-outs that look alike come from different tables or passages of the source. Where no end group is shown, it is not given here.

How the values were obtained:
LN-229 flank tumors = conditions: 0.1 mmol/kg i.v.
Text: Cells were infected with lentivirus encoding green fluorescent protein (GFP), diluted in BD Matrigel Matrix (BD Biosciences, Franklin Lakes, N.J.), and injected into both flanks of female nude athymic mice (NCr-nu/+, NCr-nu/nu, 20-25 g each). Approximately 1.4×10^6 cells were implanted per flank. To correlate tumor position with GFP fluorescence, mice were imaged using the Maestro FLEX In Vivo Imaging System as previously described. Tumor area was approximately 0.5 cm^2, as measured from GFP fluorescence images acquired with the Maestro just before MRI.
The MRI study was performed using a Bruker Biospec 7-T MRI scanner (Bruker Corp, Billerica, Mass.) with a 72-mm diameter cylindrical radio frequency coil. Mice bearing LN-229 flank tumors were imaged at 2 to 5 weeks after tumor implant. […]
Image analysis was performed by using Bruker ParaVision 4.0 imaging software. Regions of interest were drawn over the whole tumor in the 2D imaging plane and average signal intensity was measured. Contrast-to-noise ratios (CNRs) in the tumor were calculated at each time point and averaged from different mice (n=3) using the following equation: CNR=(St−Sm)/(δn), where St and Sm denote the signal in tumor and adjacent thigh muscle and δn is the SD of noise estimated from the background air. The P values were calculated using a two-tailed Student's t test, assuming statistical significance at P<0.05. […]

[1] = tested on: CNS-1-GFP intracranial tumors; conditions: for Cy5 fluorescence intensity of main tumors and dispersed cell populations: CNS-1 tumors, i.v. probe, 90 min clearance, normalized to background and tumor volume; for labeling of tumor (Cy5 signal) in words: intracranial glioma tumors, i.v. administration (FIG. 4)
Method: (§1) Imaging experiments were performed at 10-11 days for CNS-1 and 4-8 weeks for LN-229, to allow for optimal tumor growth and cell dispersal in these two cell lines. […] Following a 90-min interval for clearance of unbound probe, the animals were sacrificed and the brains removed for whole-brain imaging using the MAESTRO FLEX In-Vivo Imaging System (Cambridge Research & Instrumentation, Inc. (CRi), Woburn, Mass.) Immediately after imaging, the brains were embedded in Tissue-Tek OCT compound (Sakura Finetek U.S.A., Inc. Torrance, Calif.), frozen in a dry ice/ethanol slurry and cryo-imaged.
Frozen brains were alternately sectioned and imaged using the previously described Case Cryo-Imaging System at a section thickness of 15 μm and a resolution of 11×11×15 μm. Brightfield and fluorescence images were acquired for each of the brains using a low light digital camera (Retiga Exi, QImaging Inc., Canada), an epi-illumination fluorescent light source (Lumen200 PRO, Prior Scientific' Rockland, Mass.) and fluorescence filters for GFP (Exciter: HQ470/40x, Dichroic: Q495LP, Emitter: HQ500LP) or Cy5 (Exciter: FF01-628/40-25, Dichroic: FF660-Di01−25×36, Emitter: FF01-692/40-25; Semrock, Rochester, N.Y.). Single GFP expressing cells were readily detected with this system. […] Eight brains implanted with CNS-1-GFP cells and six brains with LN-229-GFP cells were analyzed.
Briefly, the main tumor mass was segmented using a fast 3-D region growth algorithm with intensity and gradient-based inclusion/exclusion criteria. Individual slice images were manually edited if necessary. Dispersed cells and clusters were detected by thresholding a Gaussian high pass filter image, discounting the masked main tumor mass. […] Light scattering in tissue might appear as a false positive signal in Cy5 volumes, However, we processed Cy5 volumes with a next-image processing algorithm, and used attenuation and scattering parameters for brain tissue that were previously described. Similar parameters were applied for both SBK2-Cy5 and scrambled-Cy5 volumes. To find co-labeled cells/clusters we applied a logical AND operator between the dispersed cell and Cy5 volumes. The lower limit for the blood vessel detection algorithm was ˜30 μm diameter. 3-D volumes of tumor, dispersed cells, Cy5 labeled cells, and vasculature were rendered using Amira software (Visage Imaging Inc., San Diego, Calif.), with modifications developed expressly for cryo-image data. Pseudo-colors were chosen to give the best contrast between the different data volumes.

[2] = Mouse health after multiple doses of Cy5 probes; assay type: in vivo; conditions: delivery of multiple doses
Method: as §1

[3] = tested on: LN-229-GFP intracranial tumors; experiment: In vivo labeling of LN-229-GFP intracranial tumors with Cy5 probes, 3-D cryo-imaging; design: species or system mouse; conditions: for Cy5 fluorescence of main tumors and dispersed cell populations: LN-229 tumors, i.v. probe, 90 min clearance
Text: Individual slice images were manually edited if necessary.
Total fluorescence signal was then normalized for tumor volume.

LN-229-GFP flank tumors = experiment: Histologic probe labeling of LN-229-GFP flank tumor tissue sections; assay type: binding, human; conditions: probe 1 μM, 1 hour, room temperature
Method: Tumors were embedded in Tissue Freezing Medium (Electron Microscopy Sciences, Hatfield, Pa.) in a dry ice ethanol slurry and cryosectioned at 7-μm intervals.
For probe labeling, tissue sections were blocked with 2% goat serum in phosphate-buffered saline for 20 minutes at room temperature, then incubated with SBK2-Texas Red or scrambled Texas Red probes diluted to 1 μMin block buffer for 1 hour at room temperature in dark conditions. The sections were rinsed with phosphate-buffered saline, coverslipped with Citifluor Antifadent Mounting Medium (Electron Microscopy Sciences), and imaged immediately at ×20 magnification on a Leica DMI 6000 B inverted microscope (Leica Microsystems GmbH, Wetzlar, Germany) using a Retiga EXi camera (QImaging, Surrey, BC) and Metamorph software (MolecularDevices, Downington, Pa.). Images were acquired across the entire tissue using bright-field and fluorescence optics for fluorescein (GFP) and Texas Red (probe). The resultant images were tiled and flattened to form a single composite image using Metamorph software. A human specific Vimentin antibody (clone SP20; Thermo Fisher Scientific, Fremont, Calif.) was used to detect the implanted LN-229 tumor cells and imaged as above.

prostate tumors = experiment: Labeling of prostate tumors with PTPμ probe (FIG. 3)

Compound | pattern of tumor enhancement on T1-weighted images / heat maps (LN-229 flank tumors) | Cy5 fluorescence intensity of main tumors and dispersed cell populations [1] | labeling of tumor (Cy5 signal) in words [1] | effects on mouse health [2] | Cy5 fluorescence of main tumors and dispersed cell populations [3] | labeling of flank tumor sections (LN-229-GFP flank tumors) | other results
CC(O)CN1CCN(CC(=O)[O-])CCN(CC(=O)[O-])CCN(CC(=O)[O-])CC1.[Gd+3] (centres unmarked) [ProHance, Gadoteridol, reference compound] | enhanced contrast of the tumor edge compared with the tumor center | – | – | – | – | – | –
SBK2-Cy5: SBK2 peptide (SEQ ID NO: 5) with additional N-terminal glycine conjugated to Cy5 NHS ester dye (Cy5-GEGDDFNWEQVNTLTKPTSD) | – | 73.5+/−16.2 | brightly labeled | did not result in deleterious effects | 114.7+/−25.9 | – | blood-brain barrier crossing ([1]; mouse, in vivo, iv): crosses the blood-brain barrier; dispersed cell population labeled ([3]; LN-229-GFP intracranial tumors): greater than 99%; labeling of main GFP-positive tumor in words ([3]; LN-229-GFP intracranial tumors): bright Cy5 fluorescence signal
SBK2-Texas Red: SBK2 peptide probe labeled with Texas Red (EGDDFNWEQVNTLTKPTSD; not fully specified (N-terminus); also: labeled with Texas Red, site not given here) | – | – | – | – | – | labeled the entire tumor with greatest intensity in the tumor center | recognition of prostate tumors (prostate tumors): recognized
scrambled Texas Red: scrambled peptide probe labeled with Texas Red (GFTQPETGTDNDLWSVDNEK; not fully specified (N-terminus); also: labeled with Texas Red, site not given here) [reference compound] | – | – | – | – | – | did not label the tumor | –
scrambled Tris-(Gd-DOTA)3: scrambled SBK2 peptide (SEQ ID NO: 10) linked to Gd-DOTA; nontargeted control agent (CGFTQPETGTDNDLWSVDNEK; numbers in words are those of the source; also: Tris-(Gd-DOTA)3 conjugate, attachment site not given here) [reference compound] | enhanced contrast of the tumor edge compared with the tumor center | – | – | – | – | – | –
scrambled-Cy5: scrambled sequence of the SBK2 peptide (SEQ ID NO: 10) conjugated to Cy5 dye; control probe (GFTQPETGTDNDLWSVDNEK; also: Cy5 dye conjugate, attachment site not given here) [reference compound] | – | 7.2+/−2.3 | did not label tumors | did not result in deleterious effects | 5.8 | – | labeling of tumor (Cy5 signal) in words ([1]; listed as scrambled probe): no significant signal above background
